Data published in PubChem BioAssay (NCI).
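These data come from cells grown in 96-well plates and exposed to compound for 48 hours at five concentrations. GI50: concentration for 50% inhibition of growth. Definition used: TGI = concentration required for complete inhibition of growth.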

What was measured:
Test in all cases: NCI-60 cell line screen, 48 h
HL-60(TB) leukemia = test system: HL-60(TB) leukemia
OVCAR-4 ovarian = test system: OVCAR-4 ovarian
MALME-3M melanoma = test system: MALME-3M melanoma
U251 CNS = test system: U251 CNS
CAKI-1 renal = test system: CAKI-1 renal
SK-MEL-28 melanoma = test system: SK-MEL-28 melanoma
KM12 colon = test system: KM12 colon
LOX IMVI melanoma = test system: LOX IMVI melanoma
BT-549 breast = test system: BT-549 breast
PC-3 prostate = test system: PC-3 prostate

SMILES	TGI (HL-60(TB) leukemia)	TGI (OVCAR-4 ovarian)	TGI (MALME-3M melanoma)	TGI (U251 CNS)	TGI (CAKI-1 renal)	TGI (SK-MEL-28 melanoma)	TGI (KM12 colon)	TGI (LOX IMVI melanoma)	GI50 (BT-549 breast)	TGI (BT-549 breast)	GI50 (HL-60(TB) leukemia)	GI50 (MALME-3M melanoma)	GI50 (U251 CNS)	GI50 (CAKI-1 renal)	GI50 (SK-MEL-28 melanoma)	GI50 (PC-3 prostate)	TGI (PC-3 prostate)	GI50 (KM12 colon)	GI50 (LOX IMVI melanoma)	GI50 (OVCAR-4 ovarian)
CCN(CC)CCOc1ccc(/C=C(\C#N)c2ccc(OCCN(CC)CC)cc2)cc1	38.2 µM	> 75.4 µM	28 µM	35.8 µM	> 60.1 µM	32 µM	23.2 µM	25.5 µM												
Cc1ccccc1N1C(=O)/C(=C/c2ccc(N(CCC#N)CCC#N)cc2)N=C1c1cc([N+](=O)[O-])ccc1Cl	> 100 µM	> 100 µM	> 100 µM	> 100 µM	> 100 µM	> 100 µM	> 100 µM													
O=C1CCCC/C(=C/c2ccccc2)N1	> 100 µM	> 100 µM	> 100 µM	> 100 µM	> 100 µM	> 100 µM	> 100 µM	> 100 µM												
O=c1nc2occc2cn1C1CC(O)C(CO)O1 (centres undefined)	> 100 µM	> 100 µM	> 100 µM	> 100 µM	> 100 µM	> 100 µM	> 100 µM	> 100 µM												
CCOC(=O)/C=C/C(C(=O)/C=C/c1ccc(OC2CCCCO2)c(OC)c1)=C(O)\C=C\c1ccc(OC2CCCCO2)c(OC)c1 (centres undefined)	> 100 µM		5.9 µM	12.6 µM	> 100 µM	6.74 µM	19 µM	3.32 µM	5.18 µM	28.4 µM	3.01 µM	2.07 µM	3.36 µM	4.97 µM	2.48 µM	3.85 µM	> 100 µM	4.75 µM	1.63 µM	
COC(=O)C(C(=O)C(=O)Nc1cccc(OC)c1)c1cnc2ccccc2n1 (centres undefined)	> 100 µM	> 100 µM	> 100 µM	> 100 µM	> 100 µM	> 100 µM	> 100 µM	> 100 µM												
COC(=O)C1=C(C)N(NC(=O)c2ccccc2)C(C)(O)C12CCOC2=O (centres undefined)	> 100 µM	> 100 µM	1.86 µM	> 100 µM	> 100 µM	> 100 µM	> 100 µM	> 100 µM												
CC(O)C(N=Cc1ccccc1[O-])C(=O)[O-].CC(O)C(N=Cc1ccccc1[O-])C(=O)[O-].[Co+2] (centres undefined)	> 100 µM		> 100 µM			> 100 µM	> 100 µM	> 100 µM			39.1 µM	> 100 µM			31.9 µM			> 100 µM	> 100 µM	
CC1=Nc2ccccc2C1C(Cc1ccccc1N)c1c(C)[nH]c2ccccc12 (centres undefined)	35.7 µM		31 µM	32.4 µM		32.8 µM	31.7 µM	28.2 µM												
CC1OC(n2cc(F)c(=O)[nH]c2=O)C=CC1O (centres undefined)	> 100 µM	> 100 µM	> 100 µM	> 100 µM	> 100 µM	> 100 µM	> 100 µM	> 64.3 µM												
O=C(c1ccccc1)c1cc(Cl)ccc1OCCCCN1CCN(CCCCOc2ccc(Cl)cc2C(=O)c2ccccc2)CC1	4.9 µM	20.5 µM	3.77 µM	4.14 µM	15.1 µM	24.2 µM	4.55 µM	3.21 µM			2.3 µM	1.61 µM	2.03 µM	4.08 µM	11.5 µM	3.59 µM	13.5 µM	2.09 µM	1.73 µM	6.63 µM
O=C1OC(c2ccccc2)=N/C1=C/C=C/c1ccco1		> 100 µM	> 100 µM	> 100 µM	> 100 µM	> 100 µM	> 100 µM													
OCCN1CN(CCO)CN(c2nc(N3CN(CCO)CN(CCO)C3)nc(N3CN(CCO)CN(CCO)C3)n2)C1		4.06 ng/mL								1.55 ng/mL							3.51 ng/mL			1.69 ng/mL
O=C(O/N=C1/CCCC/C1=C\c1ccccc1)c1ccccc1	40.2 µM		> 100 µM	> 100 µM		> 100 µM	> 100 µM	88.8 µM												
Ic1ccc(Nc2nc3nonc3nc2Nc2ccc(I)cc2)cc1	0.545 µM	> 100 µM	0.604 µM	> 100 µM			> 100 µM		0.301 µM	1.36 µM	0.175 µM	0.167 µM	0.324 µM	0.214 µM		0.186 µM	> 100 µM	0.293 µM		0.246 µM
COc1ccc(OC)c(NC(=O)C(=O)NNC(=O)c2sc(NNC(C)=O)nc2C)c1	90.3 µM	71.2 µM	> 100 µM	> 100 µM	> 100 µM	> 100 µM	> 100 µM	83.3 µM												
Cc1ccc(SC(C)/C=C/NNC2=NC(c3ccccc3)C(c3ccccc3)=NN2)cc1 (centres undefined)	42.5 µM	> 100 µM	> 100 µM		46.6 µM	> 100 µM	> 100 µM	> 100 µM												
C/C(=C\CCc1ccoc1)CC/C=C(\C)CCCC1=CC(=O)OC1	32.7 µM		31.5 µM		> 100 µM	46.7 µM	23.7 µM	17.2 µM	6.24 µM	25.9 µM	6.3 µM	13.7 µM		5.01 µM	7.98 µM	3.2 µM	24.9 µM	8.44 µM	4.84 µM	
CC(C)(C)[SiH]12(OC(C(F)(F)F)(C(F)(F)F)c3ccccc31)OC(C(F)(F)F)(C(F)(F)F)c1ccccc12		19.7 µM	31 µM	6.19 µM	25.3 µM	28.4 µM	15.3 µM													
COC(=O)c1cc2c3ccccc3n(C(C)=O)c2cn1	> 100 µM	> 100 µM	> 100 µM	> 100 µM	48.9 µM	> 100 µM	> 100 µM	> 100 µM												
COC(=O)C1=C(c2ccc3c(c2)OCO3)O[C@H](c2cc(OC)c(OC)c(OC)c2)[C@H]1COC(C)=O	32.5 µM	> 100 µM	92.5 µM	18.4 µM	66.8 µM	> 100 µM	50 µM	55.3 µM												
COc1ccc(NC(=O)CCc2cc(-c3ccc(O)c(OC)c3)nc(NC#N)n2)cc1	> 100 µM	> 100 µM	> 100 µM	> 100 µM	> 100 µM	> 100 µM	> 100 µM	> 100 µM												
